Here are results for four compounds from patent US20240197725A1, “METHOD AND COMPOSITION FOR THE PREVENTION OR TREATMENT OF OSTEOARTHRITIS” (Rhode Island Hospital, priority 2021, published 2024).

As usually defined, the IC50 is the concentration that inhibits the measured activity by half.

SMILES strings stand for the structures. Like-named read-outs stand apart in the source and are kept apart here.

The target in data set [1] is T1, SHP2 (Homo sapiens, UniProt Q06124). The note with it: read-out: SHP2 IC50; cited from earlier work.
T1 sequence (Q06124 whole entry): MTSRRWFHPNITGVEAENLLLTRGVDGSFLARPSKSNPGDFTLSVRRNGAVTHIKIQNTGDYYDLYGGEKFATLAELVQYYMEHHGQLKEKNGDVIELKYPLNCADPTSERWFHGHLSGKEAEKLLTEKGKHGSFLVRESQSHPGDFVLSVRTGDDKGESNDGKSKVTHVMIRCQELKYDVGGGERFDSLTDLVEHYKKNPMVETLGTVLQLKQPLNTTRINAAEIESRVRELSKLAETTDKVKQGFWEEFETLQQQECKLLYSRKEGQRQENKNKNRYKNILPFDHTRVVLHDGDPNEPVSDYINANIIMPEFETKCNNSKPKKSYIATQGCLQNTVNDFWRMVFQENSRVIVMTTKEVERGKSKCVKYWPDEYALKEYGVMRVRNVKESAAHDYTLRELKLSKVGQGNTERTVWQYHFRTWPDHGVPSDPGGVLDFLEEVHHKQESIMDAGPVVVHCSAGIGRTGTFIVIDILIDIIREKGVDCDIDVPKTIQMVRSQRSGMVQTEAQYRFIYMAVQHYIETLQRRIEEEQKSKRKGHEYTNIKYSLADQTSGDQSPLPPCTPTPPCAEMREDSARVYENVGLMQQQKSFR
Data set [2] relates to murine articular cartilage cells. The experiment in a line: Cell viability (WST1) of articular cartilage cells. It is filed as cell-based. As to conditions: concentrations as high as 1 μM, 48 hrs, WST1, n=3. The protocol: With respect to toxicity, murine articular cartilage cells were treated with indicated concentration of SHP2D26 for 48 hrs. Cell viabilities were measured using WST1 (n=3).
(Formazan colour is commonly taken as a measure of viable cells.)

In data set [3] the target is T1, SHP2. More on the design: host or cells: esophageal cancer cells (endogenous SHP2). As to conditions: cited from earlier work.
The target of data set [4] is T2, SHP2 (Mus musculus, UniProt P35235).
T2 construct: endogenous in cells; host or cells: Prg4+ murine articular cartilage (AC) cells
T2 sequence (P35235 whole entry): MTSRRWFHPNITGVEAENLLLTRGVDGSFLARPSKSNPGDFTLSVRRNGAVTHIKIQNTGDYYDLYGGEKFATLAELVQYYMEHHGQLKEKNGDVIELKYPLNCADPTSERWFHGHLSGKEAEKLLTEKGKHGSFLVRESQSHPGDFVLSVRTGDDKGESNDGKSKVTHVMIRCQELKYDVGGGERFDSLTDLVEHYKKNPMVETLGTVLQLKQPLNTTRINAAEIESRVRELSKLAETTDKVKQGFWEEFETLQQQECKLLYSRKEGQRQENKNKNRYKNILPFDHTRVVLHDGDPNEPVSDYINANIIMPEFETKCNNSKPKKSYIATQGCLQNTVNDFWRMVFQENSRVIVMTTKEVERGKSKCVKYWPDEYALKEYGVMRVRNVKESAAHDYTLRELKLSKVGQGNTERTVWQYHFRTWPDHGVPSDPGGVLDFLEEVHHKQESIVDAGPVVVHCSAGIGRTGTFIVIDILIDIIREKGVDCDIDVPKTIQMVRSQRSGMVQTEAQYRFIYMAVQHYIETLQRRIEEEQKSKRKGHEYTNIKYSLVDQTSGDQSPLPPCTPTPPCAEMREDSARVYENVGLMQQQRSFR
The experiment in a line: SHP2 degradation in Prg4+ articular cartilage cells (Western blot). As to conditions: chondrocytes, a week after withdrawal. It is filed as cell-based, murine. (In general: A western blot detects proteins with antibodies after separation by electrophoresis.)

As for `O=C1/C(=N\Nc2ccc(S(=O)(=O)O)cc2)C(c2ccc([N+](=O)[O-])cc2)=NN1c1ccc([N+](=O)[O-])cc1` [GS-493, 4-((2 Z)-2-(1,3-bis (4-Nitrophenyl)-5-oxo-1,5-dihydro-4H-pyrazol-4-yliden)hydrazino) benzenesulfonic acid, (Z)-4-(2-(1,3-bis(4-Nitrophenyl)-5-oxo-1H-pyrazol-4(5H)-ylidene)hydrazinyl)benzenesulfonic acid], on SHP2 [1], the IC50 is 71000 nM.

For the compound `O=c1c2ccccc2n2c(-c3ccccc3O)nnc2n1Cc1ccccc1Cl` [SHP357], the IC50 on SHP2 [1] was over 100000 nM.

`C[C@@H]1OCC2(CCN(c3nc4[nH]nc(-c5ccnc(NC6CC6)c5Cl)c4c(=O)n3C)CC2)[C@@H]1N` [SHP389, 6-((3S,4S)-4-Amino-3-methyl-2-oxa-8-azaspiro[4.5]decan-8-yl)-3-(3-chloro-2-(cyclopropylamino)pyridin-4-yl)-5-methyl-2,5-dihydro-4H-pyrazolo[3,4-d]pyrimidin-4-one]: the IC50 at SHP2 [1] is 36000 nM.

As to `Cc1ncsc1-c1ccc([C@H](C)NC(=O)[C@@H]2C[C@@H](O)CN2C(=O)[C@@H](NC(=O)CCCCCCCCN2CCN(C(=O)CCC(=O)Nc3cccc(Sc4ncc(N5CCC(C)(N)CC5)nc4N)c3Cl)CC2)C(C)(C)C)cc1` [SHP-D26, (2S,4R)-1-((S)-2-(9-(4-(4-((3-((3-amino-5-(4-amino-4-methylpiperidin-1-yl)pyrazin-2-yl)thio)-2-chlorophenyl)amino)-4-oxobutanoyl)piperazin-1-yl)nonanamido)-3,3-dimethylbutanoyl)-4-hydroxy-N-((S)-1-(4-(4-methylthiazol-5-yl)phenyl)ethyl)pyrrolidine-2-carboxamide], the cell viability entry in data set [2] is given as “did not compromise cell viability”. Moreover, the DC50 at SHP2 [3] (acute myeloid leukemia MV4, 11 cells, read-out: DC50) is 2.6 nM; on SHP2 [3] (esophageal cancer KYSE520 cells, read-out: DC50), 6 nM; at SHP2 [3] (range over the cancer cell lines, read-out: SHP2 DC50), 2.6 to 6 nM. Moreover, the “SHP2 recovered after complete withdrawal of compound from culture medium” value on SHP2 [4] was “about 50%”.
